“And” between values parts separate entries of the source, which are not always exact repeats. Equal entries are not always repeated.
Key:
NaV1.2 = NaV1.2 (Homo sapiens, UniProt Q99250); assay: Sodium channel selectivity, NaV1.2; assay type: cell-based; conditions: read-out: EC50 against NaV1.2
TASK3 (K2P9.1) = TASK3 (K2P9.1) (Homo sapiens, UniProt Q9NPC2); assay: Activated current, TASK3 channels; assay type: cell-based; conditions: 1 μM; n = 5
hTREK1∆N = biological target: T1, hTREK1∆N (Homo sapiens, UniProt O95069); assay: Whole-cell patch clamp, transiently transfected tsA-201 cells, TREK1ΔN; assay type: cell-based; conditions: 1 μM, n = 5
T1 construct: expressed in transfected cells; host or cells: tsA-201, transient, pcDNA3.1 vector
Procedure: (§1) Recordings of hTREK1, hTREK1∆N, hTREK2, hTRAAK and […] currents from transiently transfected tsA‐201 cells were performed using methods as described in Veale and Mathie (2016). Briefly, the pcDNA3.1 vector was cloned with the gene of interest, and these vectors and a similar vector containing GFP were incorporated into the tsA201 cells (0.5 μg per well) using the calcium phosphate method. The cells were incubated for 6–12 h at 37°C in […] and 5% carbon dioxide. Cells were then washed using a PBS solution and used for experiments after 24 h.
(§2) Currents were recorded using whole‐cell patch‐clamp using an Axopatch 1D amplifier. Cells were placed in a recording chamber filled with an external medium composed of 145 mM, NaCl, 2.5 mM KCl, 3 mM MgCl2, 1 mM CaCl2 and 10 mM HEPES (pH to 7.4, using NaOH). The internal medium used in the glass pipette comprised 150 mM KCl, 3 mM MgCl2, 5 mM (or 0.1 mM) EGTA and 10 mM HEPES (pH to 7.4, using KOH). GI‐530159 was applied by bath perfusion. Currents were recorded and analysed using pCLAMP 10.2 software Microsoft Excel. The voltage protocol used for recording current through K2P channels was as previously described (Veale and Mathie, 2016). For analysis, we measured the current difference between the −80 and −40 mV steps.

hTREK1 [1] = biological target: T2, hTREK1 (Homo sapiens, UniProt O95069); assay: Manual whole-cell patch clamp, HEK293 cells stably expressing TREK1; assay type: cell-based; parameters: expressed in transfected cells
T2 sequence (O95069 1-426): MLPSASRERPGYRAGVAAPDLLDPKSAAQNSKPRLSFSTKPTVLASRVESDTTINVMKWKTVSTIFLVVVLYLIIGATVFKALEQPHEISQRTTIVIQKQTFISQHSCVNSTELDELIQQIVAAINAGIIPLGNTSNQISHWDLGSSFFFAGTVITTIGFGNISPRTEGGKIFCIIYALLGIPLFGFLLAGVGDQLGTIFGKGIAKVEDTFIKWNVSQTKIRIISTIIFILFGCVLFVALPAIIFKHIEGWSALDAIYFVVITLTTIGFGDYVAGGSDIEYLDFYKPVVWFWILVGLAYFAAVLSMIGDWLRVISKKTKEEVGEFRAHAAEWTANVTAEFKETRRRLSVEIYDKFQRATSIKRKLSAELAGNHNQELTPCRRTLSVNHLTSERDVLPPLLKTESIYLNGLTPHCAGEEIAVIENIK
Procedure: Electrophysiological studies were performed on CHO or HEK293 cells, stably expressing human recombinant TREK1; tsA‐201 cells transiently transfected with human recombinant K2P channels and acutely dissociated rat DRG cells, all at room temperature (22–24°C).
Studies were performed using a conventional patch clamp and Multiclamp 700B and pCLAMP software (Molecular Devices, Sunnyvale, CA, USA). For conventional manual patch clamp, glass coverslips containing HEK293 cells were perfused with an extracellular solution (ECS) containing (in mM): 135 NaCl, 4.7 KCl, 1 CaCl2, 1 MgCl2, 10 HEPES and 10 glucose, pH 7.4, with NaOH (310 mOsmol·L^−1). The patch pipette was filled with (in mM): 130 KCl, 1 MgCl2, 5 MgATP, 10 HEPES and 10 BAPTA, pH adjusted to 7.3 with KOH (290 mOsmol·L^−1).

[2] = tested on: Na current in DRG neurons; assay: Voltage-clamp recordings from DRG neurons, Na current; assay type: cell-based, rat
Procedure: Acutely dissociated rat DRG cells were obtained according to a previously described protocol (Passmore, 2005). All animal care and experimental procedures complied with guidelines and were approved by the Pfizer Neusentis Institutional Animal Use and Care Committee. Animal studies are reported in compliance with the ARRIVE guidelines (Kilkenny et al., 2010; McGrath and Lilley, 2015).Cells were plated on coated coverslips (poly‐D‐lysine/laminin, BD Biosciences, San Jose, CA, USA) prior to patching on the same day. Cells were perfused with an extracellular solution containing (in mM): 135 NaCl, 4.7 KCl, 1 CaCl2, 1 MgCl2, 10 HEPES and 10 glucose, pH 7.4, with NaOH (310 mOsmol·L^−1). Pipette solution contained (in mM): 130 KCl, 1 MgCl2, 5 MgATP, 10 HEPES and 5 EGTA, pH adjusted to 7.3 with KOH (290 mOsmol·L^−1). For whole‐cell recordings, currents were filtered at 2 kHz and sampled at 5 kHz. Series resistance was compensated for by up to 80%. For current‐clamp recordings, action potential firing and resting membrane potential (RMP) were recorded from small cells ([…]). GI‐530159 was dissolved in 0.3% DMSO as 10 mM stock and applied in the vicinity of cells using a gravity fed perfusion system (MSC‐200, Bio‐Logic SAS, Claix, France).

hTREK1 [3] = biological target: T2, hTREK1; assay: Whole-cell patch clamp, transiently transfected tsA-201 cells, TREK1; assay type: cell-based; parameters: expressed in transfected cells; host or cells: tsA-201, transient, pcDNA3.1 vector, GFP from a separate vector; conditions: 1 μM, n = 6
Procedure: as §1, §2

Sequence of TASK3 (K2P9.1) (Q9NPC2 whole entry, species assumed): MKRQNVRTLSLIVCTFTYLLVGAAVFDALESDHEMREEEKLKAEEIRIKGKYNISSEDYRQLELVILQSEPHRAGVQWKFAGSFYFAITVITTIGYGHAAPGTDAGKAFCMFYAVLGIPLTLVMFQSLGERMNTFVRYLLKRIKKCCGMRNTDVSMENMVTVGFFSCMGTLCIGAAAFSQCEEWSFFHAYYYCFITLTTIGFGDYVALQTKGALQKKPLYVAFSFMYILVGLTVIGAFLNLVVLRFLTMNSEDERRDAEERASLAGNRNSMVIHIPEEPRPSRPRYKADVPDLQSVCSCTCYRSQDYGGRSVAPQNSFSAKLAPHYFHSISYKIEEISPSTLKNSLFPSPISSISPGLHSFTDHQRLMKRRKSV
Sequence of NaV1.2 (Q99250 whole entry): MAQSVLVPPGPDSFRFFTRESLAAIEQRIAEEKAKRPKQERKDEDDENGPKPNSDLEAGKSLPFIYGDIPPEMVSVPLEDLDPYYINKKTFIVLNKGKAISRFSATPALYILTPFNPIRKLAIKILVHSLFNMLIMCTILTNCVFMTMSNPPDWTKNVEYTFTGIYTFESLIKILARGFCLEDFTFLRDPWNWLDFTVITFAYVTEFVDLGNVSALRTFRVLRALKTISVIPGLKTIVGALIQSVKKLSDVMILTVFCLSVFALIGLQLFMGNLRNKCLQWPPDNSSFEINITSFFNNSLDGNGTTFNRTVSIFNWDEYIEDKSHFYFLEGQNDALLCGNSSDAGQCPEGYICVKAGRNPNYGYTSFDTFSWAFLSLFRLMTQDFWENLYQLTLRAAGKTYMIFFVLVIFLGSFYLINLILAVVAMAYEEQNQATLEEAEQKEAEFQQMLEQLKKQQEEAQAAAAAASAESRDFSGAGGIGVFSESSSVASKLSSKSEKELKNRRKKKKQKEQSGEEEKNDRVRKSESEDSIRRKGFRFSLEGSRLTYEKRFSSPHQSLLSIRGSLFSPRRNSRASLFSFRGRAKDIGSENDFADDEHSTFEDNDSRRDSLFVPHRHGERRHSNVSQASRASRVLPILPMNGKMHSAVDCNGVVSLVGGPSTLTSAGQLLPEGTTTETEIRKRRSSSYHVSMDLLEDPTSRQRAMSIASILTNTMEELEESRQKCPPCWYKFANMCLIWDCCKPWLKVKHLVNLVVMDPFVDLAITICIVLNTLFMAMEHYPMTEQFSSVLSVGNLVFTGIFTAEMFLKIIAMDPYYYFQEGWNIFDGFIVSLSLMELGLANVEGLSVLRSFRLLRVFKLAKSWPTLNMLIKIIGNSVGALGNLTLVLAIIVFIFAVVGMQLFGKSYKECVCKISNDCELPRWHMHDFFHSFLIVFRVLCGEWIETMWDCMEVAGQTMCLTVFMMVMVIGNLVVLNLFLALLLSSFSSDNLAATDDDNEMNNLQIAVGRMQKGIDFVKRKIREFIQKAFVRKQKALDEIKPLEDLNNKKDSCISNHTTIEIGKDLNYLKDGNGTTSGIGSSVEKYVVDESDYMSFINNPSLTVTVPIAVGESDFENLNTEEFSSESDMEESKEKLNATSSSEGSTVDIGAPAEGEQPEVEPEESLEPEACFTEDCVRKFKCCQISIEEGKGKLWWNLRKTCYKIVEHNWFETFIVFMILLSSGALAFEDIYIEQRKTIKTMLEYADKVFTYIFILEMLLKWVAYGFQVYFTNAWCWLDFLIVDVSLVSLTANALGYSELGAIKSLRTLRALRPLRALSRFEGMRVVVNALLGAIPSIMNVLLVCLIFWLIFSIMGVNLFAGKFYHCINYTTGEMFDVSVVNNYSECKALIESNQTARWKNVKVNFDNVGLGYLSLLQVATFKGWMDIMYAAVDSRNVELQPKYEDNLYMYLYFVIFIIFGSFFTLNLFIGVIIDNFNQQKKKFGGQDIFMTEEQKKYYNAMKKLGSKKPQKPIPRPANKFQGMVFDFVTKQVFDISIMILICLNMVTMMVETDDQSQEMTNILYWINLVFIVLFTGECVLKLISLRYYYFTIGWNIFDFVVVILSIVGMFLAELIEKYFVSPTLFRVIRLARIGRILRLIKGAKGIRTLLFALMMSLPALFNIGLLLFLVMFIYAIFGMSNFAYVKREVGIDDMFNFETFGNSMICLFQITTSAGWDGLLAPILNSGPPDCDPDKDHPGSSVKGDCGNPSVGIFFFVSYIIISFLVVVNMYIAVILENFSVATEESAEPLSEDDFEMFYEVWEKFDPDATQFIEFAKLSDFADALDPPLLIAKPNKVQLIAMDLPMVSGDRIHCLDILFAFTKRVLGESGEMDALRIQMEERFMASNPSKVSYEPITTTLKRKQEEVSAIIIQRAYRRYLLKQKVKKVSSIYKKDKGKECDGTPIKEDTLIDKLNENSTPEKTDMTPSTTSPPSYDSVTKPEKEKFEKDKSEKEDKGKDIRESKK

SMILES: Nc1ccc(Oc2ccc(C(c3ccc(Oc4ccc(N)cc4)cc3)(C(F)(F)F)C(F)(F)F)cc2)cc1 [GI‐530159, 4,4′‐(hexafluoroisopropylidene)bis(p‐phenyleneoxy)dianiline]
- EC50 (NaV1.2): > 100000 nM
- activated current, TASK3 channels (TASK3 (K2P9.1)): 0.02 ± 0.005 nA
- enhancement of TREK1ΔN current (hTREK1∆N): 377 ± 57%
- TREK1 current measured at 0 mV (hTREK1 [1]; 1 μM, HEK293, 116 ± 15 pA in presence of DMSO, n = 6, P < 0.05): 4090 ± 878 pA
- activated current, TREK1 channels (hTREK1 [1]; 1 μM, n = 6): 4.0 ± 0.9 nA
- reversal potential of compound-enhanced current (hTREK1 [1]; 1 μM, voltage ramp −100 to +80 mV): ~−80 mV
- enhanced current at maximal activation (hTREK1 [1]; 30 μM, measured at 0 mV, n = 5): 6.6 ± 0.9 nA
- EC50 (hTREK1 [1]; HEK293, 0.1 to 30 μM, measured at 0 mV, read-out: EC50 for TREK1 current enhancement): 890 nM and 900 nM
- block of Na current in DRG neurons [2]: not observed
- enhancement of TREK1 current (hTREK1 [3]): 69 ± 12%

From PMC5980259, “GI‐530159, a novel, selective, mechanosensitive two‐pore‐domain potassium (K2P) channel opener, reduces rat dorsal root ganglion neuron excitability” (British Journal of Pharmacology, 2017)
